# Assay results taken from US20240376094A2, “SELECTIVE BCL-XL PROTAC COMPOUNDS AND METHODS OF USE” (Les Laboratoires Servier, priority 2021, published 2024).
# Molecular target: T1, endogenous BCL-xL (Homo sapiens, UniProt Q07817)
# T1 construct: endogenous in cells; host or cells: COR-L105 (ECACC No. 92031918); NCI-H1650 (ATCC No. CRL-5883)
# Assay: Degradation of endogenous BCL-xL in NCI-H1650 (ProteinSimple Jess)
# Format: cell-based
# Details: NCI-H1650, dose 10 nM, 24 hours
# Experimental: The BCL-xL degrader low molecular weight compounds were tested against two endogenous cancer cell lines: • COR-L105: ECACC No. 92031918 cultured in RPMI-1640+10% FBS • NCI-H1650: (ATCC No. CRL-5883 cultured in RPMI-1640+10% FBS
# The ability of the BCL-xL degrader low molecular weight compounds to degrade endogenous BCL-xL was assessed using the ProteinSimple 2-40 kDa Jess Separation Module.
# Cell lines were cultured in media that is optimal for their growth at 5% CO2, 37° C. in a tissue culture incubator. Prior to seeding for the degradation assay, the cells were split at least 2 days before the assay to ensure optimal growth density. On the day of seeding, adherent cells were lifted off tissue culture flasks using 0.25% trypsin. Cell viability and cell density were determined using a cell counter (Vi-Cell XR Cell Viability Analyzer, Beckman Coulter). Cells with higher than 85% viability were seeded for the assay.
# The COR-L105 and the NCI-H1650 cell line were seeded in 6-well clear TC-treated multiple well plates (Costar® cat. #3516). Cells were seeded at a density of 2,000,000 cells per well in 2.5 mL of standard growth media. Plates were incubated at 5% CO2, 37° C. overnight in a tissue culture incubator. On the day of dosing, BCL-xL degrader low molecular weight compounds and a BCL-xL inhibitor control were prepared at 6× in standard growth media. […] A control well of untreated cells was also included in the study. Each drug concentration was tested in singlet. Plates were incubated at 5% CO2, 37° C. for 24 hours in a tissue culture incubator.
# After 24 hours, the adherent cells were lifted off tissue culture plates using 0.25% trypsin. Standard growth media was added to quench the trypsin and centrifuged for 5 minutes at 1500 rpm. […]
# Protein was quantified using a Pierce™ BCA Protein Assay Kit (ThermoFisher, cat #23225) following the manufacturer's instructions. […] A SpectraMax M Series Multi-Mode Microplate Reader was used to measure the absorbance at 562 nm. […] Only values that fell within the range of the standard curve were accepted for quantification. […]
# T1 sequence (Q07817 whole entry): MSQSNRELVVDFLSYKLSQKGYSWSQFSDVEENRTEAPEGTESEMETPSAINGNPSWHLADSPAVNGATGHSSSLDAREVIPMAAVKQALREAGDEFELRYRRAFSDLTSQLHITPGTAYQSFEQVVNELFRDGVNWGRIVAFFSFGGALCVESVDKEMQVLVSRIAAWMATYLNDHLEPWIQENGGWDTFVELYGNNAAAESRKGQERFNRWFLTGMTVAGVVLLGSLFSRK
row,Compound,"% BCL-xL vs. Untreated, NCI-H1650"
1,"Cc1ncsc1-c1ccc(CNC(=O)[C@@H]2C[C@@H](O)CN2C(=O)[C@@H](NC(=O)CCCCCCCCCCC(=O)N2CCN(CC#Cc3ccc(OCCCc4sc(N5CCCc6c5nnc(Nc5nc7ccccc7s5)c6C)nc4C(=O)O)c(F)c3)CC2)C(C)(C)C)cc1 [Example 48, 2-(3-(benzo[d]thiazol-2-ylamino)-4-methyl-6,7-dihydropyrido [2,3-c]pyridazin-8(5H)-yl)-5-(3-(2-fluoro-4-(3-(4-(12-(((S)-1-((2S,4R)-4-hydroxy-2-((4-(4-methylthiazol-5-yl)benzyl)carbamoyl)pyrrolidin-1-yl)-3,3-dimethyl-1-oxobutan-2-yl)amino)-12-oxododecanoyl)piperazin-1-yl)prop-1-yn-1-yl)phenoxy)propyl)thiazole-4-carboxylic acid]",1.05%
2,"Cc1ncsc1-c1ccc([C@H](C)NC(=O)[C@@H]2C[C@@H](O)CN2C(=O)[C@@H](NC(=O)CCCCCCCCCCCN2CCN(CC#Cc3ccc(OCCCc4sc(N5CCCc6c5nnc(Nc5nc7ccccc7s5)c6C)nc4C(=O)O)c(F)c3)CC2)C(C)(C)C)cc1 [Example 51, 2-(3-(benzo[d]thiazol-2-ylamino)-4-methyl-6,7-dihydropyrido [2,3-c]pyridazin-8(5H)-yl)-5-(3-(2-fluoro-4-(3-(4-(12-(((S)-1-((2S,4R)-4-hydroxy-2-(((S)-1-(4-(4-methylthiazol-5-yl)phenyl)ethyl)carbamoyl)pyrrolidin-1-yl)-3,3-dimethyl-1-oxobutan-2-yl)amino)-12-oxododecyl)piperazin-1-yl)prop-1-yn-1-yl)phenoxy)propyl)thiazole-4-carboxylic acid]",9.22%
3,"Cc1ncsc1-c1ccc([C@H](C)NC(=O)[C@@H]2C[C@@H](O)CN2C(=O)[C@@H](NC(=O)CCCCCCCCCCC(=O)N2CCN(CC#Cc3ccc(OCCCc4sc(N5CCCc6c5nnc(Nc5nc7ccccc7s5)c6C)nc4C(=O)O)c(F)c3)CC2)C(C)(C)C)cc1 [Example 46, 2-(3-(benzo[d]thiazol-2-ylamino)-4-methyl-6,7-dihydropyrido [2,3-c]pyridazin-8(5H)-yl)-5-(3-(2-fluoro-4-(3-(4-(12-(((S)-1-((2S,4R)-4-hydroxy-2-(((S)-1-(4-(4-methylthiazol-5-yl)phenyl)ethyl)carbamoyl)pyrrolidin-1-yl)-3,3-dimethyl-1-oxobutan-2-yl)amino)-12-oxododecanoyl)piperazin-1-yl)prop-1-yn-1-yl)phenoxy)propyl)thiazole-4-carboxylic acid]",16.23%

# Test system: MOLT-4 cells
# Assay: MOLT-4 cell viability, CTG assay
# Format: cell-based
# Details: Homo sapiens, MOLT-4, 48 h
# Summary of the method: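 Cells grown in RPMI 1640 with 10% FBS at 37° C, 5% CO2, then exposed to compounds for 48 h (11-point 5-fold dilution, triplicates). ATP measured by CellTiter-Glo luminescence; IC50 from four-parameter fit versus control, mean of ≥2 independent experiments.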
row,Compound,IC50
1,"Cc1ncsc1-c1ccc([C@H](C)NC(=O)[C@@H]2C[C@@H](O)CN2C(=O)[C@@H](NC(=O)CCCCCCCCCCCCCCCN(C)CCOC23CC4(C)CC(C)(CC(Cn5ncc(-c6ccc(N7CCCc8c7nnc(Nc7nc9ccccc9s7)c8C)nc6C(=O)O)c5C)(C4)C2)C3)C(C)(C)C)cc1 [Example 1, 6-[3-(1,3-benzothiazol-2-ylamino)-4-methyl-6,7-dihydro-5H-pyrido[2,3-c]pyridazin-8-yl]-3-[1-[[3-[2-[[16-[[(1S)-1-[(2S,4R)-4-hydroxy-2-[[(1S)-1-[4-(4-methylthiazol-5-yl)phenyl]ethyl]carbamoyl]pyrrolidine-1-carbonyl]-2,2-dimethyl-propyl]amino]-16-oxo-hexadecyl]-methyl-amino]ethoxy]-5,7-dimethyl-1-adamantyl]methyl]-5-methyl-pyrazol-4-yl]pyridine-2-carboxylic acid]",3.41 nM
2,"Cc1ncsc1-c1ccc([C@H](C)NC(=O)[C@@H]2C[C@@H](O)CN2C(=O)[C@@H](NC(=O)CCCCCCCN(C)CCOC23CC4(C)CC(C)(CC(Cn5ncc(-c6ccc(N7CCCc8c7nnc(Nc7nc9ccccc9s7)c8C)nc6C(=O)O)c5C)(C4)C2)C3)C(C)(C)C)cc1 [Example 6, 6-[3-(1,3-benzothiazol-2-ylamino)-4-methyl-6,7-dihydro-5H-pyrido[2,3-c]pyridazin-8-yl]-3-[1-[[3-[2-[[8-[[(1S)-1-[(2S,4R)-4-hydroxy-2-[[(1S)-1-[4-(4-methylthiazol-5-yl)phenyl]ethyl]carbamoyl]pyrrolidine-1-carbonyl]-2,2-dimethyl-propyl]amino]-8-oxo-octyl]-methyl-amino]ethoxy]-5,7-dimethyl-1-adamantyl]methyl]-5-methyl-pyrazol-4-yl]pyridine-2-carboxylic acid]",28.7 nM
3,"Cc1ncsc1-c1ccc([C@H](C)NC(=O)[C@@H]2C[C@@H](O)CN2C(=O)[C@@H](NC(=O)CCCCCCCCN(C)CCOC23CC4(C)CC(C)(CC(Cn5ncc(-c6ccc(N7CCCc8c7nnc(Nc7nc9ccccc9s7)c8C)nc6C(=O)O)c5C)(C4)C2)C3)C(C)(C)C)cc1 [Example 5, 6-[3-(1,3-benzothiazol-2-ylamino)-4-methyl-6,7-dihydro-5H-pyrido[2,3-c]pyridazin-8-yl]-3-[1-[[3-[2-[[9-[[(1S)-1-[(2S,4R)-4-hydroxy-2-[[(1S)-1-[4-(4-methylthiazol-5-yl)phenyl]ethyl]carbamoyl]pyrrolidine-1-carbonyl]-2,2-dimethyl-propyl]amino]-9-oxo-nonyl]-methyl-amino]ethoxy]-5,7-dimethyl-1-adamantyl]methyl]-5-methyl-pyrazol-4-yl]pyridine-2-carboxylic acid]",15.8 nM
4,"Cc1ncsc1-c1ccc(CNC(=O)C2C[C@@H](O)CN2C(=O)C(NC(=O)CCCCCC(=O)N2CCN(CC#Cc3ccc(OCCCc4sc(N5CCCc6c5nnc(Nc5nc7ccccc7s5)c6C)nc4C(=O)O)c(F)c3)CC2)C(C)(C)C)cc1 (stereo in doubt) [Example 15, 2-[3-(1,3-benzothiazol-2-ylamino)-4-methyl-6,7-dihydro-5H-pyrido[2,3-c]pyridazin-8-yl]-5-[3-[2-fluoro-4-[3-[4-[7-[[(1S)-1-[(2S,4R)-4-hydroxy-2-[[4-(4-methylthiazol-5-yl)phenyl]methylcarbamoyl]pyrrolidine-1-carbonyl]-2,2-dimethyl-propyl]amino]-7-oxo-heptanoyl]piperazin-1-yl]prop-1-ynyl]phenoxy]propyl] thiazole-4-carboxylic acid]",22.6 nM
5,"Cc1ncsc1-c1ccc([C@H](C)NC(=O)C2CC(O)CN2C(=O)C(NC(=O)CCCCCCCCCCCN2CCN(CC#Cc3ccc(OCCCc4sc(N5CCCc6c5nnc(Nc5nc7ccccc7s5)c6C)nc4C(=O)O)c(F)c3)CC2)C(C)(C)C)cc1 (stereo in doubt) [Example 31, 2-[3-(1,3-benzothiazol-2-ylamino)-4-methyl-6,7-dihydro-5H-pyrido[2,3-c]pyridazin-8-yl]-5-[3-[2-fluoro-4-[3-[4-[12-[[(1S)-1-[(2S,4R)-4-hydroxy-2-[[(1S)-1-[4-(4-methylthiazol-5-yl)phenyl]ethyl]carbamoyl]pyrrolidine-1-carbonyl]-2,2-dimethyl-propyl]amino]-12-oxo-dodecyl]piperazin-1-yl]prop-1-ynyl]phenoxy]propyl] thiazole-4-carboxylic acid]",7 nM
